# Source: US20250195474A1, “Piezo Inhibition for Wound Healing” (priority 2022, published 2025)
# No end group written: not given here.
# Assays:
# human adipocytes = assay: Calcium imaging of hydrogel-bound adipocytes (Fluo-4 AM); type: cell-based; conditions: stretched human adipocytes
# Excerpt: Calcium imaging was used to determine in vitro Ca^2+ flow in hydrogel-bound adipocytes with or without mechanical strain and with or without Piezo1 inhibitor treatment. A Fluo-4, AM cell permeant kit (ThermoFisher, Cat: F-14201) was used per the manufacturer's instructions. […] Imagej was used for image quantification.
# mouse adipocytes [1] = assay: Proliferation and apoptosis assays for treatment toxicity; type: cell-based; conditions: 0.5x, 1x, 2x standard concentration [500 nm], 7 days
# Protocol: P1i and P2i treated adipocytes (and fibroblast controls) were examined for treatment toxicity using proliferation and apoptosis assays. […] Then, cells were treated with either 0.5×, 1×, or 2× the standard concentration of Piezo1 or Piezo2 inhibitors [500 nm]. After 7 days of treatment, cells were fixed or harvested for analysis of potential toxicity. For proliferation, EdU (5-ethynyl-2′-deoxyuridine) incorporation in vitro was investigated on differentiated adipocytes and undifferentiated fibroblasts using the Click-iT™ EdU Cell Proliferation Kit for Imaging, Alexa Fluor™ 488 dye (ThermoFisher, Cat: C10337). Proliferation was detected according to the manufacturer's guidelines. To evaluate apoptosis, the Annexin V Apoptosis Detection Kit-AF647 (Abcam, Cat: 219919) was used according to the manufacturer's guidelines.
# dorsal excisional wounds = assay: Splinted dorsal excisional wounding with inhibitor injected at POD 0; type: in vivo, mouse
# wounds = assay: CODEX spatial protein analysis of POD 14 wounds; type: in vivo, mouse; conditions: POD 14, vs PBS
# Excerpt: (§1) To spatially phenotype the pig specimens, we used Co-Detection by Indexing (CODEX), a novel assay in which markers are labeled with oligonucleotide-conjugated antibodies and iteratively imaged between cyclic additions and washouts of dye-labeled oligonucleotides. A custom CODEX panel was designed to assess wound cells within the tissue see Table 1). In brief, primary antibodies were individually barcoded and validated using the commercial supplier's protocols. OCT for mouse or paraffin blocks for human xenograft (n=3 per group) were sectioned at 8 μm thickness onto coverslips for CODEX antibody staining. Antigens were retrieved by standard citrate-EDTA processing prior to addition of CODEX antibodies. Using a CODEX-integrated Keyence BZ-X instrument (Akoya Biosciences) image acquisition was then performed. Using software from Akoya Biosciences the raw images were process, with cell segmentation, and rendering.
# (§2) The CODEX was visualized using Akoya Biosciences Multiplex Analysis Viewer (MAV) in ImageJ. The resulting .fcs files were then concatenated in FlowJo and imported into the Monocle3 and STvEA R packages for further analysis. After debris removal, the processed UMAP manifold was analyzed through Monocle3 with a post-manifold threshold of >10,000 cells per cluster. Analysis of the protein staining patterns was then used to assign cell types. The cell interactions were then inferred using STvEA for cell types at >2.5% of total abundance at k=20 nearest neighbors to quantify cell spatial interactions, and differential interaction maps were generated using graph scores.
# existing scars = assay: CODEX spatial protein analysis of treated existing scars; type: in vivo, mouse
# Excerpt: as §1, §2
# To phenotype the spatial environment in the context of rescuing existing scars, CODEX was further employed to spatially define protein expression, cell populations, and associated cell-cell interactions (FIG. 10A; markers shown in Table 1 middle column, 39A). […]
# [2] = tested on: human xenograft fibroblasts; assay: scRNA-seq of human xenograft wounds at POD 14; type: in vivo
# Protocol: To assess if P1i acts on similar fibroblast clusters to cause regeneration, scRNA-seq analysis was performed on xenografts harvested at POD 14 post injury using a hybrid human-mouse xeno-transcriptome (FIG. 12A). Mouse cells were removed informatically and subsequent analysis focused exclusively on human cells (FIG. 41A). Partitional analysis identified 8 transcriptionally distinct clusters (FIG. 12B-C), corresponding to fibroblast and keratinocyte populations (FIG. 41A). Each cluster was present in all three treatment conditions but Cluster 3 was elevated in P1i treated wounds (FIG. 12D, FIG. 41B). […] This cluster was also enriched for pathways such as “skin morphogenesis”, as well as “neural crest differentiation” (FIG. 12G). By contrast, Cluster 0 was enriched for pathways related to adipocyte differentiation (FIG. 41C) and elevated expression of genes related to adipocyte-fibroblast transition (FIG. 41C) including expression of JUN a transcription factor associated with fibrosis (FIG. 41D).
# [3] = tested on: human foreskin xenograft wounds; assay: CODEX analysis of human xenograft wounds at POD 14; type: in vivo
# Excerpt: as §1, §2
# While scRNA-seq of human xenografts investigates human fibroblast subpopulations at a transcriptomic level, we further utilized CODEX to analyze spatially defined protein expression and cellular organization (FIG. 13A; markers shown in Table 1 right column). Specifically, we compared the spatial microenvironment of PBS, P1i, and unwounded skin at POD 14. […]
# TRPC1 = TRPC1 (Homo sapiens, UniProt P48995); conditions: cited from earlier work
# mouse adipocytes [4] = assay: Mouse adipocyte-populated collagen I hydrogels with or without mechanical stretch; conditions: 10% equibiaxial strain, 7 days; GsMTx4 500 nM, D-GsMTx4 500 nM, PF573228 10 uM, Verteporfin 300 nM
# TRPC1, sequence (P48995 whole entry, species assumed): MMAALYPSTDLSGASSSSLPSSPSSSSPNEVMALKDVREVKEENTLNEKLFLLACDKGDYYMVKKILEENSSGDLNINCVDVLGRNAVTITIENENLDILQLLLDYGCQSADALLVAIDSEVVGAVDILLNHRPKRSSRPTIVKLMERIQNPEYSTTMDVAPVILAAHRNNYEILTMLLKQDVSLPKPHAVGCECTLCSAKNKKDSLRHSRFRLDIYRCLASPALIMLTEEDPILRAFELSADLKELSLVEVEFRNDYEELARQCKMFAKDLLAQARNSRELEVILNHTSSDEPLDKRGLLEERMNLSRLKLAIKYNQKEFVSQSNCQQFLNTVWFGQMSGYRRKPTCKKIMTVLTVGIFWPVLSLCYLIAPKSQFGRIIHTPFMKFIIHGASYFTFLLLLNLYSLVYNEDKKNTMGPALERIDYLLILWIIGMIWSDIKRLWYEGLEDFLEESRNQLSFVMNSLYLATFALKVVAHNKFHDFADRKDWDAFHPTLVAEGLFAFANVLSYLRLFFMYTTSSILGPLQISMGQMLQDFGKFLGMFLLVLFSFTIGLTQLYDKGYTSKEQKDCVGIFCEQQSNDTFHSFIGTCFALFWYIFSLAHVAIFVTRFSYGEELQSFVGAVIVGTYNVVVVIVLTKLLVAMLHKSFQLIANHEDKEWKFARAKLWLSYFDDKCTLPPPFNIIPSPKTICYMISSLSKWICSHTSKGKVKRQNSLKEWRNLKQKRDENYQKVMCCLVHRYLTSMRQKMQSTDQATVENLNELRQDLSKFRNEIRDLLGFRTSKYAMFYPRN
substance,measurement,setting,value
"GsMTx4 (GCLEFWWKCNPNDDKCCRPKLKCSKLFKLCNFSF; ends and bridges not checked; cysteine pairing not given here; UniProt Q7YT39 47-80, looked up) [P1i]",calcium staining with stretching,human adipocytes,decreased
same,"percentage of cells positive for EdU, annexin V or DAPI by FACS",mouse adipocytes [1],None of the markers' expression was significantly different
same,time to complete wound re-epithelialization,"dorsal excisional wounds; 30 uL of 0.2 mg/ml intradermal at wound edge, POD 0",did not significantly affect
same,Oil Red O staining and IF for cytokeratins 14/19 (regenerating appendages),dorsal excisional wounds; POD 14,presence of putative regenerating sebaceous glands/HF
same,"mechanical properties (tensile testing, Young's modulus)",dorsal excisional wounds; POD 14,reverted scars to more unwounded-like mechanical properties
same,adipocyte-derived fibroblasts (ADFs) in wounds,"dorsal excisional wounds; POD 14, FACS and histology",absent
same,structures consistent with unerupted hair follicles,"dorsal excisional wounds; POD 14, single injection at POD 0",numerous structures morphologically consistent with unerupted hair follicles
same,Col1 and α-SMA,dorsal excisional wounds; POD 14 and POD 30,reduced
same,ECM density,dorsal excisional wounds; POD 14 and POD 30,less dense
same,hair follicle formation,dorsal excisional wounds; POD 30,allowed for hair follicle formation
same,Lef1 (new hair follicle formation),wounds,highly expressed
same,adipocyte-fibroblast spatial interactions (CODEX),wounds,reduced adipocyte-fibroblast interactions
same,individual adipocyte-fibroblast subpopulation interactions (CODEX),wounds,enriching the interactions of adipocyte cluster 2 with fibroblast clusters 2 and 4
same,adipocyte cluster 2 interactions with epithelial cells,"existing scars; POD 60, 105 and 150",interacted more strongly with epithelial cells
same,expression of mechanical markers,"existing scars; POD 60, 105 and 150",PBS treated wounds showed higher expression of mechanical markers
same,interactions mediated by adipocyte clusters,existing scars; vs PBS treated scars,enriched interactions mediated by adipocyte cluster 2
same,"expression of TWIST2, WNT5A, CALU and SFRP2",[2]; POD 14,highly expressed
same,representation of human cluster 3,[2]; POD 14,elevated
same,CellChat cluster 0 activity with other clusters,"[2]; POD 14, vs control wounds",downregulation
same,interactions between fibroblasts and adipocytes,[3]; POD 14,PBS-treated wounds showed broadly enriched interactions between fibroblasts and adipocytes compared to P1i-treated wounds
same,interactions of adipocytes 4,[3]; POD 14,strong crosstalk between adipocytes 4 and epithelial cells
same,relative proportions of CODEX defined adipocyte clusters,"[3]; POD 14, vs PBS, p<0.05",fewer of the adipocyte 1 subtype and more of the adipocyte 4 subtype
same,block of TRPC1,TRPC1,blocks
same,"stretch-induced phenotypic switch (losing adiponectin, expressing Col1)",mouse adipocytes [4],abrogated
